In the supplement of paper PMC13380429:

What was measured:
Details in all cases: 72 h
Calu-3 [1] = test: relative viability EC50 (midpoint between 100% and the lowest measured viability); higher = less toxic
U2OS [2] = test: as above
Vero E6 [3] = test: as above
Caco-2 [4] = test: as above
HepG2 [5] = test: as above
Calu-3 [6] = test: drug sensitivity score (DSS) for viability; higher = more toxic; extreme values may be limits of the assay
U2OS [7] = test: as above
Vero E6 [8] = test: as above
Caco-2 [9] = test: as above
HepG2 [10] = test: as above
Calu-3 [11] = test: cell viability relative to DMSO; higher = less toxic
U2OS [12] = test: as above
Vero E6 [13] = test: as above
Caco-2 [14] = test: as above
HepG2 [15] = test: as above

| SMILES | relative viability EC50 (Calu-3 [1]) [µM] | relative viability EC50 (U2OS [2]) [µM] | relative viability EC50 (Vero E6 [3]) [µM] | relative viability EC50 (Caco-2 [4]) [µM] | relative viability EC50 (HepG2 [5]) [µM] | drug sensitivity score (Calu-3 [6]) | drug sensitivity score (U2OS [7]) | drug sensitivity score (Vero E6 [8]) | drug sensitivity score (Caco-2 [9]) | drug sensitivity score (HepG2 [10]) | cell viability (Calu-3 [11]; 1 nM) [%] | cell viability (Calu-3 [11]; 10 nM) [%] | cell viability (Calu-3 [11]; 100 nM) [%] | cell viability (Calu-3 [11]; 1000 nM) [%] | cell viability (Calu-3 [11]; 10000 nM) [%] | cell viability (U2OS [12]; 1 nM) [%] | cell viability (U2OS [12]; 10 nM) [%] | cell viability (U2OS [12]; 100 nM) [%] | cell viability (U2OS [12]; 1000 nM) [%] | cell viability (U2OS [12]; 10000 nM) [%] | cell viability (Vero E6 [13]; 1 nM) [%] | cell viability (Vero E6 [13]; 10 nM) [%] | cell viability (Vero E6 [13]; 100 nM) [%] | cell viability (Vero E6 [13]; 1000 nM) [%] | cell viability (Vero E6 [13]; 10000 nM) [%] | cell viability (Caco-2 [14]; 1 nM) [%] | cell viability (Caco-2 [14]; 10 nM) [%] | cell viability (Caco-2 [14]; 100 nM) [%] | cell viability (Caco-2 [14]; 1000 nM) [%] | cell viability (Caco-2 [14]; 10000 nM) [%] | cell viability (HepG2 [15]; 1 nM) [%] | cell viability (HepG2 [15]; 10 nM) [%] | cell viability (HepG2 [15]; 100 nM) [%] | cell viability (HepG2 [15]; 1000 nM) [%] | cell viability (HepG2 [15]; 10000 nM) [%] |
| --- | --- | --- | --- | --- | --- | --- | --- | --- | --- | --- | --- | --- | --- | --- | --- | --- | --- | --- | --- | --- | --- | --- | --- | --- | --- | --- | --- | --- | --- | --- | --- | --- | --- | --- | --- |
| COc1cc2c(cc1OC)[C@H](C)NCC2 [Isoquinoline,-6,7-dimethoxy-1-methyl-1,2,3,4-tetrahydro,] | > 10 | > 10 | > 10 | > 10 | > 10 | 0 | 0 | 0 | 0 | 0 | 109 | 104 | 101 | 109 | 96.1 | 102 | 103 | 104 | 90.4 | 102 | 97.3 | 96.5 | 96.8 | 96.5 | 106 | 92.5 | 89.1 | 99.4 | 92.3 | 112 | 100 | 95.6 | 99.9 | 97.4 | 101 |
| COCC1=C(C(=O)O)N2C(=O)[C@@H](NC(=O)/C(=N\OC)c3csc(N)n3)[C@H]2SC1 [cefpodoxime] | > 10 | > 10 | > 10 | > 10 | > 10 | 0 | 0 | 0 | 0 | 0 | 98 | 105 | 96.8 | 99.4 | 103 | 104 | 99.6 | 105 | 102 | 101 | 99.7 | 98.1 | 99.2 | 97.5 | 99.4 | 106 | 112 | 97.5 | 91.4 | 105 | 106 | 103 | 108 | 101 | 96.1 |
| CC(O)Cn1cnc2c1c(=O)n(C)c(=O)n2C (stereo not given) [Proxyphylline] | > 10 | > 10 | > 10 | > 10 | > 10 | 0 | 0 | 0 | 0 | 0 | 92.5 | 100 | 106 | 99.3 | 104 | 98.9 | 92.8 | 95.1 | 93.6 | 104 | 90.1 | 99.1 | 87 | 90.8 | 108 | 102 | 93.9 | 99.9 | 101 | 94.6 | 106 | 102 | 98.7 | 111 | 103 |
| COc1cc(OC)c(NC(=O)Nc2cc(C)on2)cc1Cl | > 10 | > 10 | > 10 | > 10 | > 10 | 0 | 0 | 0 | 0 | 0 | 86.7 | 98.4 | 97.2 | 95.1 | 90 | 97 | 99.9 | 97.2 | 98.4 | 97.4 | 99 | 104 | 102 | 104 | 96.8 | 98.9 | 102 | 90.3 | 96.3 | 90 | 102 | 108 | 97 | 110 | 103 |
| NC1CCN(c2c(F)cc3c(=O)c(C(=O)O)cn(C4CC4)c3c2Cl)C1 (stereo not given) [clinafloxacin] | > 10 | > 10 | > 10 | > 10 | > 10 | 0 | 0 | 0 | 0 | 0 | 95.5 | 94.4 | 94.7 | 97.6 | 99.5 | 95 | 102 | 97.5 | 102 | 102 | 102 | 97 | 95 | 98.7 | 104 | 98.7 | 100 | 89.7 | 106 | 108 | 115 | 97 | 108 | 97.3 | 109 |
| Cc1cc(OI)c(C(C)C)cc1-c1cc(C(C)C)c(OI)cc1C [thymol-iodide] | > 10 | > 10 | > 10 | > 10 | > 10 | 0 | 0 | 0 | 0.2 | 0 | 91.2 | 97 | 102 | 101 | 105 | 101 | 103 | 103 | 98.2 | 99.6 | 104 | 102 | 99.7 | 99.5 | 97.7 | 104 | 102 | 103 | 97.7 | 87.9 | 99.5 | 105 | 92.8 | 99.1 | 93.7 |
| CNC(=O)c1ccc2c(c1)CCO[C@H]2CCN1CCN(c2ccc(C(N)=O)cc2)CC1 | > 10 | > 10 | > 10 | > 10 | > 10 | 0 | 0 | 0 | 0 | 0 | 99.7 | 81.1 | 95.2 | 107 | 100 | 99.5 | 106 | 100 | 103 | 101 | 105 | 102 | 104 | 99.1 | 107 | 94.9 | 105 | 91.9 | 102 | 97.1 | 103 | 104 | 95.2 | 98.9 | 99.6 |
| CC(C)C[C@H](NC(=O)OCc1ccccc1)C(=O)N[C@@H](C[C@@H]1CCNC1=O)C(O)S(=O)(=O)O (stereo not given in full) [GC376 sodium] | > 10 | > 10 | > 10 | > 10 | > 10 | 0 | 0 | 0 | 0 | 0 | 105 | 92.2 | 99.9 | 104 | 96.1 | 90.4 | 101 | 97.3 | 100 | 108 | 90.3 | 104 | 93.2 | 102 | 108 | 97.2 | 92.6 | 96.7 | 92.7 | 108 | 101 | 99.8 | 97 | 102 | 95.4 |
| C[C@H]1CNCCCN1S(=O)(=O)c1cccc2cncc(F)c12 [ripasudil] | > 10 | > 10 | > 10 | > 10 | > 10 | 0 | 0 | 0.2 | 0 | 0.3 | 88.6 | 98.1 | 102 | 138 | 143 | 98.4 | 100 | 99.4 | 99.8 | 92.9 | 109 | 103 | 105 | 91.6 | 88.7 | 92 | 90.4 | 87.5 | 99.2 | 101 | 111 | 101 | 101 | 92.1 | 88 |
| CC(C)=CCC/C(C)=C/CC/C(C)=C/CSc1ccccc1C(=O)O [salirasib] | > 10 | > 10 | > 10 | > 10 | > 10 | 0 | 0 | 0 | 0 | 0 | 104 | 99.6 | 101 | 103 | 99.2 | 102 | 97.3 | 98 | 96.6 | 97.9 | 95.8 | 103 | 97.2 | 97.4 | 97.3 | 93.4 | 97.8 | 98.9 | 96.3 | 92.6 | 98.5 | 98.7 | 93.9 | 98.5 | 94.8 |
| CCCN(CCC)C(=O)C1=Cc2ccc(-c3ccc(C(=O)N4CCCC4)cc3)cc2N=C(N)C1 [motolimod] | > 10 | > 10 | > 10 | > 10 | 4 | 0 | 0 | 0 | 0 | 2.5 | 121 | 103 | 112 | 112 | 98.1 | 106 | 101 | 99.6 | 98.1 | 92 | 102 | 102 | 98.1 | 99.2 | 91.6 | 102 | 106 | 124 | 109 | 100 | 107 | 113 | 89.7 | 114 | 40.6 |
| CS(=O)(=O)N1CCc2c(-c3cnc(N)nc3)nc(N3CCOCC3)nc21 | 1.17 | 1.98 | 1.67 | 1.19 | 1.22 | 7.6 | 4.2 | 5.2 | 7 | 6.9 | 94.2 | 96.3 | 98.2 | 70.5 | 29.3 | 99.5 | 97.5 | 99.9 | 92 | 47.1 | 104 | 108 | 95.3 | 87.4 | 41.7 | 93.3 | 97.6 | 96.9 | 72 | 33.3 | 111 | 101 | 95.3 | 72.6 | 33.3 |
| COc1cc(Cc2cnc(N)nc2N)c(C(C)C)cc1OC [Ro-3] | > 10 | > 10 | > 10 | > 10 | > 10 | 0 | 0 | 0 | 0 | 0 | 98.1 | 87.8 | 98 | 101 | 103 | 97.8 | 99.7 | 95 | 102 | 102 | 90.6 | 95.7 | 96.5 | 94.9 | 103 | 94.9 | 90.5 | 97.3 | 101 | 102 | 99.2 | 92.3 | 93.5 | 101 | 103 |
| CC(=O)c1ccc2c(c1)[C@H](NC(=O)c1ccc(F)c(Cl)c1)[C@H](O)C(C)(C)O2 [tonabersat] | > 10 | > 10 | > 10 | > 10 | > 10 | 0 | 0 | 0 | 0 | 0 | 95.4 | 100 | 99 | 106 | 111 | 100 | 105 | 92.1 | 101 | 101 | 109 | 110 | 103 | 100 | 98.6 | 88.2 | 123 | 81.3 | 107 | 86.6 | 95 | 95.3 | 126 | 97.9 | 90.2 |
